In ChEMBL document CHEMBL4819052, “Structure-Based Approaches to Improving Selectivity through Utilizing Explicit Water Molecules: Discovery of Selective β-Secretase (BACE1) Inhibitors over BACE2” (J Med Chem, 2021):

Experiment: Dissociation constant, pKa of compound by capillary electrophoresis
Format: physicochemical

pKa | Structure (SMILES)
8.3 | CC#C[C@@]1(c2cc(NC(=O)c3ccc(C#N)cn3)ccc2F)CCOC(N)=N1
7.5 | CC#C[C@]1(c2cc(NC(=O)c3cnc(OCF)cn3)ccc2F)N=C(N)OCC12CC(F)(F)C2
8.4 | CC#C[C@@]1(c2cc(NC(=O)c3cnc(OCF)cn3)ccc2F)CCOC(N)=N1
6.5 | CC#C[C@]1(c2cc(NC(=O)c3cnc(OCF)cn3)ccc2F)N=C(N)OC[C@@H]1F
